Laboratory results from patent publication US12508280B2, “Formulations for improving gut health” (DSM IP ASSETS B.V., priority 2018, dated 2025).

Columns and labels:
[1] = Broiler feeding trial, cecal 1H-NMR metabolomic analysis; type: in vivo, chickens
Procedure: A total of 63 samples have been provided to the Bio-NMR Group of Department of Agricultural and Food Science and Interdepartmental Centre for Industrial Agri-Food Research (CIRI) of University of Bologna, Italy, including 21 cecal samples, collected from the first time point, 21 from the second time point and 21 from the third time were available.
Preliminary analysis were performed on 63 samples subdivided as follows: control samples (A) fed with 10 mg/kg of Vit. B2, treated samples (B) fed with 50 mg/kg of Vit. B2, treated samples (C) fed with 100 mg/kg of Vit. B2. Samples were prepared for nuclear magnetic resonance (NMR) analysis by vortex mixing for 5 minutes stool with 1 mL of deionized water, followed by centrifugation for 10 minutes at 14,000 rpm and 4° C. About […] of supernatant was added to 100 μL of a D2O 1.5 M phosphate buffer solution containing 0.1% TSP (3-(trimethylsilyl)propionic acid-d4), NaN3 2 mM, set at pH 7.40. Before analysis, samples were centrifuged for 10 minutes again and then 590 uL transferred into an NMR tube.
Proton NMR (^1H-NMR) spectra were recorded at 298 K with an AVANCE III spectrometer (Bruker, Milan, Italy) operating at a frequency of 600.13 MHz. The Hydrogen Deuterium Oxide (HOD) residual signal was suppressed by presaturation, whereas broad signals from slowly tumbling molecules were removed by including a Carr-Purcell-Meiboom-Gill filter27 to a free induction decay sequence. The filter was made up by a train of 400 echoes separated by 800 μs, for a total time of 328 ms. Each spectrum was acquired by summing up 256 transients using 32 K data points over a 7211.54-Hz spectrum (for an acquisition time of 2.27 seconds). The recycle delay was set to 8 seconds, keeping into consideration the longitudinal relaxation time of the protons under investigation. Each spectrum was processed with Top Spin 3.0 (Bruker) by using an automatic command apk0.noe, which performs in one shot the baseline and phase correction and by applying a line-broadening factor of 1 Hz. […]

Bifidobacterium = assay: Microbiome composition by shotgun sequencing: Bifidobacterium (first set); type: cell-based, human; details: after 24 h fermentation, vs corresponding control

Q: With Cc1cc2nc3c(=O)[nH]c(=O)nc-3n(C[C@H](O)[C@H](O)[C@H](O)CO)c2cc1C [Vitamin B2, riboflavin] as the molecule, how does the “cecal propionate (1H-NMR integral area)” value ([1]; groups A, B, C, T0, T1, T2) read?
A: A tendency to increase

Q: And the “cecal butyrate (1H-NMR integral area)” value ([1]; groups A, B, C, T0, T1, T2 (14, 28, 38/42 days))?
A: not affected by both treatment and time

Q: And the “cecal uracil (1H-NMR integral area)” value ([1]; samples C (100 mg/kg Vit. B2) vs others)?
A: always higher than the others

Q: For Vitamin E, which Bifidobacterium relative abundance (Bifidobacterium; 0.2× dose) is on record?
A: increase Bifidobacterium relative abundance

Q: What about the Bifidobacterium relative abundance (Bifidobacterium; 1× dose) of the same molecule?
A: increase Bifidobacterium relative abundance

Q: And the Bifidobacterium relative abundance (Bifidobacterium; 5× dose)?
A: increase Bifidobacterium relative abundance
